Counter-ions that a name gives are not always drawn.
Tests used:
[1] = test system: Purkinje fiber of the right ventricular free wall (myocardial action potential); assay: Influence on myocardial action potential duration time (APD75), isolated right ventricular free wall, microelectrode in Purkinje fiber; type: cell-based, dog; conditions: Canis lupus familiaris, 20 min, 20 minutes' incubation, (B-A)/A×100, read-out: APD75 (%); for activation at 1 µg/mL: 1.0 μg/ml; for activation at 3 µg/mL: 3.0 μg/ml; for activation at 10 µg/mL: 10.0 μg/ml
[2] = test system: ventricular muscle refractory period; assay: Influence on ventricular muscle refractory period (ERP); type: in vivo, mongrel dog; conditions: Canis lupus familiaris, iv, i.v., (W-Y)/Y×100, read-out: ERP (%; extensibility of refractory period)
Description: (2) Influence on ventricular muscle refractory period Refractory periods were measured in the following manner before and after each of the compounds and d-sotalol shown in Table 2 was separately administered to a vein or a duodenum, and ERP (%; extensibility of refractory period) was calculated from the measured values: ERP (%)=(W-Y)/Y×100 W: Refractory period after administration Y: Refractory period before administration To a mongrel adult dog, 30 mg/kg of pentobarbital was administered intravenously, and after being anesthetized, a pair of silver-silver chloride electrodes separated by 3 mm was sewn on an opened right ventricule, and electrical stimulation was given at an interval of 400 msec at a duration time of 4 msec under a current twice as much as the threshold. Afterward, a small amount of alcohol was injected into a sinus artery in order to extinguish a pacemaker activity, and the ventricular refractory period (ERP) was measured under ventricule pacing. That is, each 1 train comprised 10 stimulations having intervals of 400 msec, and an interval between the trains was usually 400 msec. However, this interval was shortened 10 msec by 10 msec at the time of the refractory period measurement, and an interval between the trains at the time when reaction to the first stimulation of the train disappeared was regarded as the refractory period. In this case, the electrical stimulation was fed in accordance with a program by a heart stimulation device (Diamedical Co., Ltd.; DHM-226-3).

[3] = Toxicity test, mortality rate 24 hours after administration; conditions: mouse, in vivo
Description: Each of the compounds prepared in the above-mentioned examples was administered into a mouse (ddY strain, male). In each case, oral administration (p.o.) and intra peritoneal administration (i.p.) were separately carried out in a dose of 300 mg/kg and 250 mg/kg, respectively.
A mortality rate (number of specimens: one group=2 to 4 mice) of the mice 24 hours after the administration was calculated, and the results are set forth in Table 3.
Following the same procedure as in Toxicity Test 1, toxicity of the respective compounds prepared in the above examples in Table 5 was tested to calculate a mortality rate of mice.
Administration was made by oral administration (p.o.) in an amount of 300 mg/kg of each compound for one mouse.
Following the same procedure as in Toxicity Test 1, toxicity of the respective compounds prepared in the above examples in Table 7 was tested to calculate a mortality rate of mice.

SMILES | activation at 1 µg/mL [1] | activation at 3 µg/mL [1] | activation at 10 µg/mL [1] | change in vivo at 0.1 mg/kg [2] | change in vivo at 0.3 mg/kg [2] | change in vivo at 1 mg/kg [2] | change in vivo at 3 mg/kg [2] | mortality at 24 h ([3]; po, 300 mg/kg (p.o.)) | mortality at 24 h ([3]; ip, 250 mg/kg (i.p.))
CC(=O)OCCN(CCCc1ccc([N+](=O)[O-])cc1)CCNc1cc(=O)n(C)c(=O)n1C [Compound 167, 1,3-dimethyl-6-{2-[N-(2-acetoxyethyl)-3-(4-nitrophenyl)propylamino]ethylamino}-2,4(1H,3H)-pyrimidinedione oxalate] | 16% | 21% | 26% | 8% | 8% | 15% | 15% | 0% | –
Cn1c(N2CCN(CCCOc3cc([N+](=O)[O-])ccc3O)CC2)cc(=O)n(C)c1=O [Compound 145, 1,3-dimethyl-6-{4-[3-(2-hydroxy-5-nitrophenyloxy)propyl]piperazin-1-yl}-2,4(1H,3H)-pyrimidinedione hydrochloride] | 7% | 16% | 23% | 0% | 6.7% | 6.7% | 20% | 0% | –
Cn1c(N2CCN(Cc3ccc([N+](=O)[O-])cc3C(=O)c3ccccc3)CC2)cc(=O)n(C)c1=O [Compound 134, 1,3-dimethyl-6-{4-[(2-benzoyl-4-nitrophenyl)methyl]piperazin-1-yl}-2,4(1H,3)-pyrimidinedione oxalate] | – | – | – | – | – | – | – | 0% | –
Cn1c(N2CCN(CCCOc3ccc([N+](=O)[O-])cc3C(=O)c3ccccc3)CC2)cc(=O)n(C)c1=O [Compound 80, 1,3-dimethyl-6-{4-[3-(2-benzoyl-4-nitrophenoxy)propyl]piperazin-1-yl}-2,4(1H,3H)-pyrimidinedione oxalate] | 19% | 30% | 34% | 2.6% | 9.7% | 21.9% | – | 0% | –
C=CCOc1cc([N+](=O)[O-])ccc1OCCCN1CCN(c2cc(=O)n(C)c(=O)n2C)CC1 [Compound 161, 1,3-dimethyl-6-{4-[3-(2-allyloxy-4-nitrophenyloxy)propyl]piperazin-1-yl}-2,4(1H,3H)-pyrimidinedione hydrochloride] | 26% | 39% | – | 0% | 6.7% | 6.7% | 6.7% | 0% | –
Cn1c(NCCN(CCO)CCCCc2ccc([N+](=O)[O-])cc2)cc(=O)n(C)c1=O [Compound 23] | 18% | 35% | 39% | – | – | – | – | 0% | –
Cn1c(N2CCN(CCOc3ccc([N+](=O)[O-])cc3C(=O)c3ccc(Br)cc3)CC2)cc(=O)n(C)c1=O [Compound 100] | – | – | – | – | – | – | – | 0% | –
Cn1c(N2CCN(CCOc3ccc(C(=O)c4ccccc4)cc3[N+](=O)[O-])CC2)cc(=O)n(C)c1=O [Compound 103] | – | – | – | – | – | – | – | 0% | –
Cn1c(N2CCN(CCc3ccccc3[N+](=O)[O-])CC2)cc(=O)n(C)c1=O [Compound 10, 1,3-dimethyl-6-{4-[2-(2-nitrophenyl)ethyl]piperazin-1yl}-2,4(1H,3H)-pyrimidinedione oxalate] | – | 2% | 11% | 6.7% | 6.7% | 13.3% | 20% | 0% | –
Cn1c(NCCNc2ccc([N+](=O)[O-])cc2C(=O)c2ccccc2)cc(=O)n(C)c1=O [Compound 131, 1,3-dimethyl-6-[2-(2-benzoyl-4-nitroanilino)ethylamino]-2,4(1H,3H)-pyrimidinedione oxalate] | – | – | – | – | – | – | – | 0% | –
Cn1c(N2CCN(CCc3ccc([N+](=O)[O-])cc3C(=O)c3ccccc3)CC2)cc(=O)n(C)c1=O [Compound 133, 1,3-dimethyl-6-(4-[2-(2-benzoyl-4-nitrophenyl)ethyl]piperazin-1-yl)-2,4(1H,3H)-pyrimidinedione oxalate] | – | – | – | 6.3% | 6.3% | 18.8% | – | 0% | –
CCN(CCCc1ccc([N+](=O)[O-])cc1)CCNc1cc(=O)n(C)c(=O)n1C [Compound 4, 1,3-dimethyl-6-{2-<N-ethyl-N-[3-(4-nitrophenyl)propyl]amino>ethylamino}-2,4(1H,3H)-pyrimidinedione hydrochloride] | 11% | 16% | – | 5.6% | 11.1% | 16.7% | 16.7% | 0% | 0%
CSc1ccc(OCCCN2CCN(c3cc(=O)n(C)c(=O)n3C)CC2)c([N+](=O)[O-])c1 [Compound 147, 1,3-dimethyl-6-{4-[3-(4-methylthio-2-nitrophenyloxy)propyl]piperazin-1-yl}-2,4(1H,3H)-pyrimidinedione hydrochloride] | 14% | 18% | – | 0% | 0% | 0% | – | 0% | –
Cn1c(N2CCN(CCCCOc3ccc([N+](=O)[O-])cc3)CC2)cc(=O)n(C)c1=O [Compound 54, 1,3-dimethyl-6-{4-[4-(4-nitrophenoxy)butyl]piperazin-1-yl}-2,4(1H,3H)-pyrimidinedione hydrochloride] | – | 15% | 26% | – | – | – | – | 0% | –
CCN(CCCCc1ccc([N+](=O)[O-])cc1)CCNc1cc(=O)n(C)c(=O)n1C [Compound 22] | – | – | – | – | – | – | – | 0% | 50%
CC(=O)c1ccc(OCCCN2CCN(c3cc(=O)n(C)c(=O)n3C)CC2)c([N+](=O)[O-])c1 [Compound 77, 1,3-dimethyl-6-{4-[3-(4-acetyl-2-nitrophenoxy)propyl]piperazin-1-yl}-2,4(1H,3H)-pyrimidinedione oxalate] | – | – | – | – | – | – | – | 0% | –
Cn1c(N2CCN(CCNC(=O)c3ccc([N+](=O)[O-])cc3)CC2)cc(=O)n(C)c1=O [Compound 45, 1,3-dimethyl-6-{4-[2-(4-nitrobenzoylamino)ethyl]piperazin-1-yl}-2,4(1H,3H)-pyrimidinedione hydrochloride] | – | – | – | – | – | – | – | 0% | –
Cn1c(N2CCN(CCCOc3ccc([N+](=O)[O-])cc3C(O)c3ccccc3)CC2)cc(=O)n(C)c1=O (stereo not drawn) [Compound 148, 1,3-dimethyl-6-{4-<3-[2-(α-hydroxybenzyl)-4-nitrophenyloxy]propyl>piperazin-1-yl}-2,4(1H,3H)-pyrimidinedione oxalate] | – | – | – | – | – | – | – | 0% | –
Cn1c(N2CCN(c3ccc([N+](=O)[O-])cc3C(=O)c3ccccc3)CC2)cc(=O)n(C)c1=O [Compound 128, 1,3-dimethyl-6-{4-(2-benzoyl-4-nitrophenyl)piperazin-1-yl}-2,4(1H,3H)-pyrimidinedione oxalate] | – | – | – | – | – | – | – | 0% | –
CCOC(=O)CN(CCCc1ccc([N+](=O)[O-])cc1)CCNc1cc(=O)n(C)c(=O)n1C [Compound 175, 1,3-dimethyl-6-{2-[N-ethoxycarbonylmethyl-3-(4-nitrophenyl)propylamino]ethylamino}-2,4(1H,3H)-pyrimidinedione oxalate] | 8% | 16% | – | – | – | – | – | 0% | –
Cn1c(N2CCN(CCCOc3c(Cl)cc([N+](=O)[O-])cc3Cl)CC2)cc(=O)n(C)c1=O [Compound 165, 1,3-dimethyl-6-{4-[3-(2,6-dichloro-4-nitrophenyloxy)propyl]piperazin-1-yl}-2,4(1H,3H)-pyrimidinedione hydrochloride] | – | – | – | – | – | – | – | 0% | –
Cn1c(NCCNC(=O)c2ccc([N+](=O)[O-])cc2)cc(=O)n(C)c1=O [Compound 56, 1,3-dimethyl-6-[2-(4-nitrobenzoylamino)ethylamino]-2,4(1H,3H)-pyrimidinedione] | – | – | – | 6.7% | 6.7% | 6.7% | – | 50% | –

Source: US5008267A, “Pyrimidinedione compounds, method of producing the same and antiarrythmic agents containing the same” (Mitsui Toatsu Chemicals, Incorporated, priority 1988, dated 1991)
